ChEMBL document CHEMBL1201862, “PubChem BioAssay data set” (2004)
Active and inactive are the calls of the source.

Experiments:
HeLa = test: ATP-based viability loss in HeLa cells – cell-based, CellTiter-Glo luminescence, cherry-pick samples, cytotoxicity control for MITF activator project, dose response (AID 540259); format: functional; settings: Homo sapiens
Protein Wnt-3a = Protein Wnt-3a (Mus musculus, UniProt P27467); test: antagonism of Wnt3a pathway luciferase reporter – Wnt-LIGHT cells, luminescence, selectivity assay for Gli-SUFU antagonist project, dose response (AID 651570); format: functional; settings: read-out: IC50_Mean;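 also: Wnt-LIGHT reporter cells stimulated with conditioned medium from Wnt3a-producing cells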
[1] = reduction of Shn3 3'UTR-driven luciferase in osteoblasts – cell-based, Clone20 osteoblasts, firefly luciferase, cherry-picked, dose response (AID 624132); format: functional;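 also: firefly luciferase luminescence from reporter carrying the Shn3 3'UTR in osteoblasts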
[2] = non-specific 3'UTR reporter inhibition in Clone20-Shn3RL – cell-based, Renilla luciferase, cherry-picked, counter-screen for Shn3 inhibitor project, dose response (AID 624133); format: functional
[3] = loss of viability in HepG2 cells – cell-based, CellTiter-Glo, cherry-picked, cytotoxicity control for Shn3 inhibitor project, dose response (AID 624134); format: functional
Prothrombin = Prothrombin (Homo sapiens, UniProt P00734); test: Thrombin 1536 HTS Dose Response Confirmation. [Related pubchem assays: 1046 (Thrombin 1536 HTS; hits were confirmed in this assay)]; format: functional
[4] = molecular target: T1, Polyadenylate-binding protein 1 (Homo sapiens, UniProt P11940); test: MLLE domain peptide-binding blockers, IC50 – biochemical, fluorescence polarization, FITC-PAM2 peptide, dose response (AID 602259); format: functional; settings: read-out: IC50_Mean
[5] = molecular target: T1, Polyadenylate-binding protein 1; test: MLLE binding blockers, Cy5 peptide tracer – biochemical, fluorescence polarization, Cy5-PAM2 peptide, secondary, miRNA deadenylation inhibitor project, dose response (AID 602260); format: functional; settings: read-out: IC50_Mean
Coagulation factor XII = molecular target: T2, Coagulation factor XII (Homo sapiens, UniProt P00748); format: functional;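 also: activated factor XIIa alpha cleaving a fluorogenic AMC peptide substrate; inhibitor potency from loss of enzyme activity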
T2 sequence (P00748 whole entry): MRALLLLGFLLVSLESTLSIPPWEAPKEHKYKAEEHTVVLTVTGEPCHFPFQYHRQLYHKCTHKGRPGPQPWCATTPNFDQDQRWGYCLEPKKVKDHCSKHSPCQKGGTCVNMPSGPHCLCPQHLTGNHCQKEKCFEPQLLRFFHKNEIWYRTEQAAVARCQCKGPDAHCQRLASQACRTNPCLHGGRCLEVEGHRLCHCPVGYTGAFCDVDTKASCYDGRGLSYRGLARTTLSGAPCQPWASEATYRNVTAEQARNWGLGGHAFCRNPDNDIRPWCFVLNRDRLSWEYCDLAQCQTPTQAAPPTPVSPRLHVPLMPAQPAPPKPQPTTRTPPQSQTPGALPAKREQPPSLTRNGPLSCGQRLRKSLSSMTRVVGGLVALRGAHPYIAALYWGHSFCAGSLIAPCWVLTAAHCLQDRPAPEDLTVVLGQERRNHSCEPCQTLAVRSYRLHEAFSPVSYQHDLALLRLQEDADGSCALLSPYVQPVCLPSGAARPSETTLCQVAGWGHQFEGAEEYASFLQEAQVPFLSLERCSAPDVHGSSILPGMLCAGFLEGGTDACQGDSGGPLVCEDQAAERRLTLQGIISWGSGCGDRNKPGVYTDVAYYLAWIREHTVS

[6] = molecular target: DNA dC->dU-editing enzyme APOBEC-3G (Homo sapiens, UniProt Q9HC16); test: Dose Response confirmation of small molecule APOBEC3G DNA Deaminase Inhibitors via a fluorescence-based single-stranded DNA deaminase assay. [Related pubchem assays (depositor defined):AID493012, AID493028]; format: functional
[7] = molecular target: T3, Adenosylmethionine-8-amino-7-oxononanoate aminotransferase (Mycobacterium tuberculosis, UniProt P9WQ81); test: Mycobacterium tuberculosis BioA enzyme inhibitor Measured in Biochemical System Using Plate Reader - 2163-02_Inhibitor_Dose_CherryPick_Activity.; format: functional, Mycobacterium tuberculosis UT205
T3 sequence (P9WQ81 whole entry): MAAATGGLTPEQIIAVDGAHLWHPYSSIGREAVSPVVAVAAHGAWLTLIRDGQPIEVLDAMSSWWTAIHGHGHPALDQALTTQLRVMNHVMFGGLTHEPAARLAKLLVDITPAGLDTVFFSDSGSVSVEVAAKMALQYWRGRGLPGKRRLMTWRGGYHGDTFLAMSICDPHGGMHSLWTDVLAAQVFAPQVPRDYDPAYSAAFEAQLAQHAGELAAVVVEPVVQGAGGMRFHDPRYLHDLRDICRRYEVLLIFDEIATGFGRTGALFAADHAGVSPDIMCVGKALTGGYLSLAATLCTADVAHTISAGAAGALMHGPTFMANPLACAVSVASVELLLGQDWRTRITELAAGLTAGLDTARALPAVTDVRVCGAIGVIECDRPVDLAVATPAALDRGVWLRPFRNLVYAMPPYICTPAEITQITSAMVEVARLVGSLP

Genome polyprotein = Genome polyprotein (dengue virus type 2, UniProt P29990); test: flavivirus cap methylation enzyme inhibition – biochemical, confirmation dose response, primary screen (AID 588689); format: functional
[8] = molecular target: Induced myeloid leukemia cell differentiation protein Mcl-1 (Homo sapiens, UniProt Q07820); format: functional
Leucine aminopeptidase = molecular target: T4, Leucine aminopeptidase (Plasmodium falciparum 3D7, UniProt Q8IL11); test: P. falciparum M17LAP inhibitors, primary screen, biochemical, fluorogenic H-Leu-NHMec substrate, 1536-well (AID 1619); format: functional
T4 sequence (Q8IL11 whole entry): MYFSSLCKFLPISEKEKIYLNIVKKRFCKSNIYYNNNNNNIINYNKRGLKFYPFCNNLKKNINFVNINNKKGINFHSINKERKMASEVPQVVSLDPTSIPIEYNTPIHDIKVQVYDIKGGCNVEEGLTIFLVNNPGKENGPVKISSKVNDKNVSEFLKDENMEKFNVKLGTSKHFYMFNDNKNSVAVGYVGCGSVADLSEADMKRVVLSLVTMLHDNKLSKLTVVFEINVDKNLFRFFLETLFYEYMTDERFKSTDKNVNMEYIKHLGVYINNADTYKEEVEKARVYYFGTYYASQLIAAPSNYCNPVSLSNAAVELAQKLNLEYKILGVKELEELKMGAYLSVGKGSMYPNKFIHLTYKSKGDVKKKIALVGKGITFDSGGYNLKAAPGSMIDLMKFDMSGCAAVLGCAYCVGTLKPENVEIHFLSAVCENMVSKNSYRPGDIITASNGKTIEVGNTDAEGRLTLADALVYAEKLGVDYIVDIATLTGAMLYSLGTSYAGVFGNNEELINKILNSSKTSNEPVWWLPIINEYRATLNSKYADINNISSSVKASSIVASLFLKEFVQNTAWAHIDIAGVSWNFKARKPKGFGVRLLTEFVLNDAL

DNA dC->dU-editing enzyme APOBEC-3G, sequence (Q9HC16 whole entry): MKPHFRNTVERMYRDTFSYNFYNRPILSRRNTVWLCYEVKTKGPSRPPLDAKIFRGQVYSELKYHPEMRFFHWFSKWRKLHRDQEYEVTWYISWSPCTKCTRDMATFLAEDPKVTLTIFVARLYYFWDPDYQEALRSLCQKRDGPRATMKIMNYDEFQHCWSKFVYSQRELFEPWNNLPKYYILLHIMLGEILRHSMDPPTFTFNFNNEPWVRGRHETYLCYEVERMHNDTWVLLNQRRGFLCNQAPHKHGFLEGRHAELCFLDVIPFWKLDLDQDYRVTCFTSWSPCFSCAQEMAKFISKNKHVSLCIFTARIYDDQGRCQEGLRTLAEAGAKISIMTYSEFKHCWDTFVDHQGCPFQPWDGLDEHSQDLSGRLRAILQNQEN
T1 sequence (P11940 whole entry, the tested form may be a part): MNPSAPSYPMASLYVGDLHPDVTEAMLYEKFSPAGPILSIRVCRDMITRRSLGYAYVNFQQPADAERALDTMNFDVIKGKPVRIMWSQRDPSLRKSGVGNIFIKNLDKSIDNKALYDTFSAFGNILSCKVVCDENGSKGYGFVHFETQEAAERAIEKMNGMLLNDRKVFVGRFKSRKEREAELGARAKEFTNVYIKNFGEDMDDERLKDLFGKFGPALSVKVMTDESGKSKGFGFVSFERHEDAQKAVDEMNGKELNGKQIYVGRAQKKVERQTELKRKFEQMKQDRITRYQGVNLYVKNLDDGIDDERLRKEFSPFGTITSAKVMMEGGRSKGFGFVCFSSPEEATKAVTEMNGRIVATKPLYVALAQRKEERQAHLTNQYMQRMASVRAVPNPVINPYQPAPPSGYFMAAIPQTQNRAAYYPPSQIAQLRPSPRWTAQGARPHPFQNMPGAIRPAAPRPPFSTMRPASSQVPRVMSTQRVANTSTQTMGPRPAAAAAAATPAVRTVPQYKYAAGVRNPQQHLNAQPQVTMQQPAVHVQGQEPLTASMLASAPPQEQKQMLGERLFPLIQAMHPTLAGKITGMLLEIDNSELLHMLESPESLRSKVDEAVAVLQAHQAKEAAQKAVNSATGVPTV
Induced myeloid leukemia cell differentiation protein Mcl-1, sequence (Q07820 whole entry): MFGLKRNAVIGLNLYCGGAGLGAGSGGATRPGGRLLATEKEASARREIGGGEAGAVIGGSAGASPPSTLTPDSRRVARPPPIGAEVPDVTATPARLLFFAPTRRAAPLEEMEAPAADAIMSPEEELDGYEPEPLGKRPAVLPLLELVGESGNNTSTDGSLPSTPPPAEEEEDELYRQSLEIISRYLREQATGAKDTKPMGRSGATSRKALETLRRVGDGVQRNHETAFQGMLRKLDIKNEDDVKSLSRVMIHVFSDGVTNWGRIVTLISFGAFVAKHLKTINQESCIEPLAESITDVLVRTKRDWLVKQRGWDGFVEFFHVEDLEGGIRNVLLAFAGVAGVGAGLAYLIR
Protein Wnt-3a, sequence (P27467 whole entry): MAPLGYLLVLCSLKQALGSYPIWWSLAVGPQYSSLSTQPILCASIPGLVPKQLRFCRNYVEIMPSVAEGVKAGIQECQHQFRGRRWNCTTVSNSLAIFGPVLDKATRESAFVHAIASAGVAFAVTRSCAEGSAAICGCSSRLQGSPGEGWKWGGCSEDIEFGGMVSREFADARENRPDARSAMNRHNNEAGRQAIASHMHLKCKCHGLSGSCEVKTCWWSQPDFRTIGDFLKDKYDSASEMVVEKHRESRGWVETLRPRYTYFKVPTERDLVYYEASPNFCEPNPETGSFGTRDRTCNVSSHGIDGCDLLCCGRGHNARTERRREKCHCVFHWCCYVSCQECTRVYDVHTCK
Genome polyprotein, sequence (P29990 2492-3391 limits assumed): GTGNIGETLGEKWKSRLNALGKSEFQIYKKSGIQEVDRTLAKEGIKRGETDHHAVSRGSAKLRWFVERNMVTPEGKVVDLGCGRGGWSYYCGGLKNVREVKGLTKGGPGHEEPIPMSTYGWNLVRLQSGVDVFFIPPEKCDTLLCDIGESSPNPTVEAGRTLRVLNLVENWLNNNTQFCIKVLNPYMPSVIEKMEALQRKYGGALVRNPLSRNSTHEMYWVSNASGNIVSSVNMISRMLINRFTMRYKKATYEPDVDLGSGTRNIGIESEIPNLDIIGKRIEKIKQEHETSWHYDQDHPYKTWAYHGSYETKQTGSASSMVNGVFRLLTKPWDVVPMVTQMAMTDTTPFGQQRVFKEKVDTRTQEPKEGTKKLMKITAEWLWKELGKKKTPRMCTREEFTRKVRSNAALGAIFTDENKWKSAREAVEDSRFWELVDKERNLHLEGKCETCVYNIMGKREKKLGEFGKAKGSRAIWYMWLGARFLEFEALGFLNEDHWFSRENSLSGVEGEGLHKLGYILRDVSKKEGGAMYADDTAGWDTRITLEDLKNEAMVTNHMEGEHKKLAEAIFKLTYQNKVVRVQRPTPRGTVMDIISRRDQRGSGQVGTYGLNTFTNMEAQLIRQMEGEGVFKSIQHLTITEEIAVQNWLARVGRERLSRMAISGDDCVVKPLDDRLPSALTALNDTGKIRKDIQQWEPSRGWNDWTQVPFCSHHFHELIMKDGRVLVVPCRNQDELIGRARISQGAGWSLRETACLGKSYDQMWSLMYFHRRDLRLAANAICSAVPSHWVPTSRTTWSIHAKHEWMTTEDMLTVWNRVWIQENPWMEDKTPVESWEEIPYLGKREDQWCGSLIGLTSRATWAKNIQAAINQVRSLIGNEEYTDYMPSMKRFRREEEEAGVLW

## Cc1ccc(NC(=O)c2ccc3ccccc3n2)cc1S(=O)(=O)N(C)C
HeLa
  AC50: 35.4 µM (active)

## CCN(CC)S(=O)(=O)c1ccc(S(=O)(=O)N2CCCC(C(=O)NC3CC3)C2)cc1 (stereo not drawn)
Protein Wnt-3a
  IC50: 0.444 µM (active)
[1]
  AC50: 2.9 µM (active)
[2]
  AC50: 9.46 µM (active)
[3]
  AC50: 52 µM (active)

## CCOC(=O)N1CCN(C(=O)c2oc3ccc(S(=O)(=O)N4CCOCC4)cc3c2C)CC1
Prothrombin
  IC50: > 50 µM (not active)

## COc1ccc(NC(=S)NC(=O)c2ccccc2)cn1
[4]
  IC50: > 66 µM (inactive)
[5]
  IC50: > 66 µM (inactive)

## CCOCCn1c(-c2ccc(OC)cc2)nc2ccccc21
Coagulation factor XII
  IC50: > 50 µM (inactive)

## CCOC(=O)c1sc(=S)n(C)c1NC(=O)c1ccc(OC)cc1
[6]
  IC50: 41.1 µM (active)

## CCCN1CCC(N2CCCC(C(=O)O)C2)CC1 (stereo not drawn)
Prothrombin
  IC50: > 50 µM (not active)

## c1ccc2c(c1)OCC(c1nnc3sc(-c4ccc5c(c4)OCO5)nn13)O2 (stereo not drawn)
[6]
  IC50: 52.8 µM (active)

## COc1ccc(/C=C(\C#N)c2n[nH]c(Cn3cncn3)n2)cc1
Coagulation factor XII
  IC50: > 50 µM (inconclusive)

## CC1(C(=O)NCc2ccc(F)c(F)c2)Cc2c(-c3cccc(C(N)=O)c3)ccnc2O1 (stereo not drawn)
[7]
  AC50: 0.498 µM (active)

## Cc1ccc(-c2nn(-c3ccccc3)cc2/C=C2\SC(=S)N(CC(=O)O)C2=O)cc1
Genome polyprotein
  IC50: 36.5 µM (active)
[8]
  IC50: 4.14 µM (active)

## CC1=NNC(=O)C1CCC(=O)N/N=C(/C)c1ccc([N+](=O)[O-])cc1 (stereo not drawn)
Leucine aminopeptidase
  IC50: 80.6 µM (active)

## NC(=O)N/N=C/C=C/c1ccccc1 [PHENYLETHENYLSEMICARBAZONE]
Prothrombin
  IC50: > 50 µM (not active)
